The assay relates to P. falciparum 3D7 growth, pLDH absorbance. In words: P. falciparum 3D7 growth inhibition, dose response, strain 3D7 (AID 2305).

Several values for one entry are separate records, joined by “and”; a condition that tells them apart may be missing. Equal values may be shown once.

Consider `CCOC(=O)C1=C(C)NC2=C(C(=O)CC(C)(C)C2)C1c1ccc(Br)cc1` (centres undefined), for which the IC50 – broadly, the concentration that inhibits the measured activity by half – was found to be 1160 nM.

As to `O=C(Nc1ccc(OC2CCN(Cc3ccccc3)CC2)c(Cl)c1)c1ccc(F)cc1`, the IC50 was found to be 800 nM.

The compound `O=C(Nc1ccc(OC2CCN(Cc3ccc(F)cc3)C2)cc1)c1cccs1` (centres undefined) showed a 50% inhibitory concentration (IC50) of 640 nM.

`O=C(C=Cc1ccc(-c2ccccc2)cc1)N1CCC(CCN2CCC(c3c[nH]c4ccccc34)CC2)CC1` came in with a concentration for half-maximal inhibition (IC50) of 1120 nM.

As to `COc1c(C2=CCN(CCCCNC(=O)c3ccc(-c4ccc(C#N)cc4)cc3)CC2)ccc2c1CCCC2`, the IC50 worked out at 910 nM.

As for `COc1cccc(Nc2nccc(NCC(O)c3cccc(C(F)(F)F)c3)n2)c1` (centres undefined), the IC50 came to 700 nM.

Take `O=C(Nc1cccc(-c2ccc(CN3CCCC3)cc2)c1)c1ccc(Cl)cc1`: the IC50 came out at 430 nM.

As for `CN1CCN(Cc2nc(-c3ccc4c(Nc5ccc(F)c(O)c5)ccnc4c3)cs2)CC1`, the IC50 worked out at 170 nM.

In the case of `COc1cccc(C(=O)NC(c2ccc(Cl)cc2Cl)c2cc(Cl)c3cccnc3c2O)c1` (centres undefined), the concentration for half-maximal inhibition (IC50) is 450 nM.

Consider `CC(C)(C)c1ccc(CNCCOc2ccc(Nc3nnc(-c4ccc(-c5ncc[nH]5)cc4)o3)c3ccccc23)cc1`, for which the IC50 turned out to be 140 nM.

Consider `CC(C)(C)c1ccc2nc(-c3ccc(C(=O)NCCCc4ccccc4)cc3)[nH]c2c1`, for which the IC50 came out at 800 nM.

In turn, `COc1ccc(CNCC2CCC(CNCCc3ccccc3)CC2)cc1Cl` (centres undefined) had an IC50 of 790 nM.

`COc1ccccc1-c1cccc(Nc2c(Nc3ccc(Cl)cc3)c(=O)c2=O)c1` came in with a 50% inhibitory concentration (IC50) of 880 nM.

On to `O=C(/C=C/c1ccccc1Cl)Nc1ccc(Br)c(OCCN2CCN(CCN3CCCC3)CC2)c1`, for which the concentration for half-maximal inhibition (IC50) stood at 650 nM.

In turn, `Cn1cnc2c(SCc3ccccc3OCc3ccccc3)ncnc21` came in with a 50% inhibitory concentration (IC50) of 920 nM.

In the case of `COc1ccc(NC(=O)/C=C/c2ccc(-c3ccc(-c4noc(C)n4)cc3)cc2)cc1OCCN(C)C`, the half-maximal inhibitory concentration (IC50) worked out at 1370 nM.

For the compound `CCc1ccc(N2C(=O)C3C(Cc4ccc(OC(C)(C)C)cc4)NC4(C(=O)N(Cc5ccccc5)c5ccc(F)cc54)C3C2=O)cc1` (centres undefined), the half-maximal inhibitory concentration (IC50) is 800 nM.

As to `COc1ccccc1CN1CCC(CNC(=O)c2cc(-c3ccc(N(C)C)cc3)cs2)C1` (centres undefined), the half-inhibitory concentration (IC50) was determined as 1270 nM.

`OCC(CO)(CO)NCc1ccc2c3c(cccc13)-c1ccccc1-2` gave an IC50 of 1260 nM.

With `CN1CCN(Cc2ccc(-c3ccc4c(Nc5ccc(Oc6ccccn6)cc5)ccnc4c3)o2)CC1`, the IC50 was 140 nM.

`COc1ccc2nccc([C@@H](O)CN3CCC(NC(=O)Cc4ccc(Br)c5ccccc45)CC3)c2c1` had an IC50 of 820 nM.

On to `COc1ccc2nccc([C@@H](O)CN3CC[C@H](NCc4nc5c(cc4Cl)SCC(=O)N5)[C@H](F)C3)c2c1`, for which the IC50 was 760 nM and 510 nM.

Take `OCC1CCN(Cc2ccc(-c3ccc(-c4nc5ccc(C(F)(F)F)cc5[nH]4)s3)cc2)CC1`: the IC50 is 480 nM.

In turn, `Cc1cccc2[nH]c(-c3cccc(-c4cccc(NC(=O)NCc5cccc(F)c5)c4)c3)nc12` showed an IC50 of 450 nM.

Take `CCOC(=O)c1ccc(-c2c(C(F)(F)F)noc2-c2cc(CC)c(OC)cc2O)o1`: the IC50 worked out at 210 nM.

`Cn1c2ccccc2c2c3ccccc3c(CNC(CO)(CO)CO)cc21` had an IC50 of 520 nM.

For the compound `Cc1[nH]c2ccccc2c1CC1CCN(CC2CCN(C(=O)/C=C/c3ccc(Cl)c(Cl)c3)CC2)CC1`, the 50% inhibitory concentration (IC50) was determined as 950 nM.

Compound `Cc1cccc(Nc2nc3nonc3nc2Nc2cccc(Cl)c2Cl)c1C` had a half-inhibitory concentration (IC50) of 1030 nM.

In turn, `CC1CN(Cc2cccc(C#N)c2)CCN1c1ccc(NC(=O)c2cccs2)cc1` (centres undefined) returned an IC50 of 680 nM.

The compound `CCOC(=O)C1=C(C)NC2=C(C(=O)C(C(=O)OC)C(C)C2)C1c1cc(Br)c(OCC)c(OC)c1` (centres undefined) gave a concentration for half-maximal inhibition (IC50) of 700 nM.

In turn, `CO/C(=C\C=C/c1cc2cc(Cl)c(Cl)cc2[nH]1)C(=O)NC1CC(C)(C)N(C)C(C)(C)C1` gave a 50% inhibitory concentration (IC50) of 830 nM.

The compound `CCC(=C(CC)c1ccc(O)c(CNC2CCCCC2)c1)c1ccc(O)c(CNC2CCCCC2)c1` displayed an IC50 of 150 nM.

Take `CCNc1cc(C(=O)N[C@@H](Cc2ccccc2)[C@H](O)CNCCc2cccc3ccccc23)cc(N2CCCC2=O)c1`: the IC50 amounted to 980 nM.

With `Cc1nn(-c2ccccc2)c2sc(C(=O)N(CCCN(C)C)c3nc(-c4ccccc4)cs3)cc12`, the 50% inhibitory concentration (IC50) was 980 nM.

`CCc1ccc(Cc2cnc3nc(N)nc(N)c3c2C)cc1CC` registered a concentration for half-maximal inhibition (IC50) of 290 nM.

The compound `CCN(CC)CCN(CCN(CC)CC)c1ccc2c(c1)Sc1c(Cl)ccc(Cl)c1S2` displayed an IC50 of 880 nM.

`CCCN(Cc1nnc(-c2cccs2)o1)C(=O)CSc1nnnn1-c1ccc(C)c(C)c1` displayed an IC50 of 580 nM.

The compound `Fc1cccc(CNc2ncc(-c3ccsc3)c(-c3nccs3)n2)c1` registered a half-maximal inhibitory concentration (IC50) of 240 nM.

`Cc1cc(CNCCCCCCCNCc2ccc(-c3ccccc3)cc2)ccc1O`: the half-inhibitory concentration (IC50) was 490 nM.

Compound `COc1cc(C(=O)NCCCN2CCN(c3cc(Cl)ccc3OC)CC2)ccc1-c1nc2cc(Cl)c(Cl)cc2[nH]1` returned an IC50 of 730 nM.

In the case of `COc1ccc(CCCCN2C(=O)C(c3ccccc3)(c3ccccc3)N=C2N)cc1`, the IC50 stood at 860 nM.

`O=C(O)C[C@H](NC(=O)c1cc(-c2ccc3c(c2)OCO3)no1)C(=O)O` (tested in a mixture with another compound) came in with an IC50 of 190 nM.

For `NC1CCN(Cc2cccc(-c3ccc(-c4nc5ccc(C(F)(F)F)cc5[nH]4)cc3)c2)C1` (centres undefined), the IC50 was 700 nM.

Consider `COc1ccc(CNCc2ccc(F)cc2)cc1-c1ccc(S(=O)(=O)NCCN2CCCC2)c(C)c1`, for which the concentration for half-maximal inhibition (IC50) is 730 nM.

For the compound `Cc1cc(N[C@@H](Cc2ccccc2)C(=O)NCc2cccc(F)c2)nc(NCCc2cccs2)n1`, the half-maximal inhibitory concentration (IC50) stood at 620 nM.

As for `Cc1cc(F)ccc1-c1nc(N(C)CCN(C)C(=O)N(C)c2ccccc2)nc2c1ccc(=O)n2-c1c(F)cccc1F`, the IC50 turned out to be 1240 nM.

`Cc1c2ccncc2c(C)c2c1[nH]c1cc(Cc3ccccc3)c(O)cc12` displayed an IC50 of 150 nM.

In the case of `COc1cccc(C(=O)NCCc2cccc(Cl)c2)c1OCc1ccccc1`, the IC50 is 1260 nM.

As for `N#Cc1ccc2c(c1)CN(CCCCNC(=O)c1ccc(-c3ccccc3)cc1)CC2`, the half-maximal inhibitory concentration (IC50) is 890 nM.

As to `COc1ccc(CCCN2C(=O)C(c3ccccc3)(c3ccccc3)N=C2N)cc1`, the IC50 is 1050 nM.

For `O=C(NC1CCC(CN2CCC(c3c[nH]c4ccccc34)CC2)CC1)[C@H]1Cc2ccccc2CN1` (some centres undefined), the half-inhibitory concentration (IC50) was determined as 950 nM.

On to `CCOc1cc(Cl)c(C(C)NC(=O)c2cccc(OC)c2)cc1OCC` (centres undefined), for which the IC50 is 960 nM.

`CCCN(CCC)C(=O)c1cc(C(=O)N[C@@H](Cc2ccccc2)[C@H](O)CNC(C)(C)c2cccc(C(F)(F)F)c2)cc(N2CCCCS2(=O)=O)c1` registered an IC50 of 40 nM.

`O=C(Cn1c(CCc2cccc(F)c2F)nc(=O)c2ccccc21)N(CCN1CCCCC1)Cc1ccc(-c2ccc(C(F)(F)F)cc2)cc1` returned a half-inhibitory concentration (IC50) of 760 nM.

`COc1cc(C)c(NC(=O)c2cccc3c(=O)c(C)c(-c4ccccc4)oc23)cc1OC`: the IC50 was determined as 1630 nM.

In turn, `CN1CCN(c2cc(-c3cccnc3)nc(-c3ccncc3)n2)CC1` displayed an IC50 of 550 nM.

In turn, `CC=Cc1cc(Cc2cnc(N)nc2N)cc(CCC)c1OC` registered an IC50 of 780 nM.

`CC(C)(C)c1ccc(CNC(=O)c2ccc(-c3nc4ccc(Cl)cc4[nH]3)cc2)cc1` registered a half-inhibitory concentration (IC50) of 820 nM.

Compound `O=c1[nH]c2c(cc1CNC1CCCCC1)c(-c1cccc(F)c1)nn2-c1ccccc1` displayed an IC50 of 950 nM.

Regarding `Oc1cccc(Nc2nc(NCc3ccco3)c3ccccc3n2)c1`, the half-inhibitory concentration (IC50) was 410 nM.

For `CCCCc1cc(NCc2ccncc2)nc(Nc2ccc(C)cc2)n1`, the IC50 stood at 790 nM.

`C[C@H]1CN(Cc2cccc(-c3cc(CNC(=O)c4cccc(CC5CCN(C)CC5)c4)ccc3F)c2)CCN1C` showed a concentration for half-maximal inhibition (IC50) of 1090 nM.

In the case of `C[C@H]1CN(Cc2cccc(-c3cc(CNC(=O)c4cccc(C(=O)c5ccc(Cl)c(Cl)c5)c4)ccc3F)c2)CCN1`, the IC50 worked out at 1140 nM.

`CCCCCCN(C(=O)OCc1ccccc1)[C@@H]1CCN(C(=O)OC(C)(C)C)C[C@H]1C(=O)OCC` gave a concentration for half-maximal inhibition (IC50) of 370 nM.

In turn, `O=C(/C=C/c1ccc(Cl)c(Cl)c1)NCCCCCCN1CCCN(C(=O)Nc2ccc(Cl)c(Cl)c2)CC1` showed a half-maximal inhibitory concentration (IC50) of 670 nM.

`O=C(Nc1ccc2c(c1)CCN2C1CCN(Cc2cc(F)cc(F)c2F)C1)c1ccco1` (centres undefined) came in with an IC50 of 590 nM.

In turn, `CN(C)CCNCc1cccc(-c2cccc(-c3nc4ccccc4[nH]3)c2)c1` came in with an IC50 of 770 nM.

Compound `COc1ccc(CCNC(=O)c2cc3c(=O)n4cccc(C)c4nc3n(C)c2=N)cc1` registered an IC50 of 760 nM.

On to `C[C@@H]1CN(c2cnn(Cc3ccc(NC(=O)Nc4cccc(C(F)(F)F)c4)cc3)c(=O)c2Cl)C[C@H](C)N1`, for which the half-inhibitory concentration (IC50) is 940 nM.

`CC(C)COc1ccc(Cl)cc1Cc1ccc(-c2nc3ccc(N4CCN(C)CC4)cc3[nH]2)o1` displayed an IC50 of 950 nM.

Take `O=C(C=Cc1ccc(Cl)c(Cl)c1)NCCCCCN1CCC(CCNC(=O)C(c2ccccc2)c2ccccc2)CC1`: the 50% inhibitory concentration (IC50) came out at 1010 nM.

`CC(C)NCc1ccc(-c2cccc(-c3nc4ccccc4[nH]3)c2)cc1` came in with a half-inhibitory concentration (IC50) of 230 nM.

`Cc1ccc2[nH]c3c(NCCCN4CCOCC4)ncnc3c2c1`: the IC50 was 940 nM.

In turn, `COc1ccc(Oc2ccc(Nc3ccnc4ccc(C(F)(F)F)cc34)cc2)cc1OC` gave an IC50 of 1060 nM.

The compound `CC(C)n1nc(C(=O)N2CCN(c3ccccc3)CC2)c2ccccc2c1=O` returned a concentration for half-maximal inhibition (IC50) of 980 nM.

As to `Cc1cc(C2CCN(CCCCNC(=O)c3ccc(-c4ccc(C(F)(F)F)cc4)cc3)CC2)c(C)cc1OCCO`, the IC50 was 880 nM.

On to `COc1ccc2nccc([C@@H](O)CN3CCC(c4cc(-c5ccc(Cl)cc5)n[nH]4)CC3)c2n1`, for which the IC50 is 740 nM.

`Cc1nnc2c(NC(=O)NC3CCCC3)cc3cc(-c4ccc(CN5CCN(C)CC5)cc4)ccc3n12`: the IC50 was found to be 1020 nM.

As for `C=C[C@H]1CN2CC[C@H]1C[C@H]2[C@H](O)c1ccnc2ccc(OC)cc12`, the IC50 is 100 nM and 430 nM and 150 nM.

Compound `COc1cc2c(=O)c(Cc3ccc(Cl)cc3)c(C)[nH]c2cc1F` yielded a half-inhibitory concentration (IC50) of 1160 nM.

In turn, `O=C(NCc1cccc(F)c1)Nc1ccc(-c2cccc(-c3nc4ccccc4[nH]3)c2)cc1` came in with a half-inhibitory concentration (IC50) of 890 nM.

Take `N#Cc1ccc2c(c1)CCN(CCC1CCC(NC(=O)c3cc4ccc(Cl)cc4[nH]3)CC1)C2` (centres undefined): the half-maximal inhibitory concentration (IC50) amounted to 700 nM.

Compound `O=C(NCCc1ccccc1)N(Cc1cccc(-c2ccc(CNC3CCCC3)cc2)c1)C1CCN(Cc2ccccc2)CC1` yielded an IC50 of 400 nM.

`CCCNC(=O)C1Cc2c([nH]c3cc(Br)ccc23)C2(CCN(CCc3ccccc3)CC2)N1` (centres undefined) displayed an IC50 of 970 nM.

For the origin of these results see PubChem BioAssay AID2305 (GlaxoSmithKline (GSK), 2010).
